# Test results reported in patent US20070128217A1 (priority 2003, published 2007).
# What was measured:
# [1] = tested on: control sera (pooled serum of ten healthy LUMC hospital workers; commercial negative donor pooled serum from the Dutch bloodbank); type: binding, human; design: Binding of Control serum LUMC to linear peptides / Binding of Control serum Blood-bank to linear peptides / Binding of Control serum LUMC to looped peptides / Binding of Control Serum Blood-Bank to Looped peptides / Binding of Control serum LUMC to linear peptides of the protein M of SARS-CoV Urbani / Binding of Control serum Blood-bank to linear peptides of the protein M of SARS-CoV Urbani / Binding of Control serum LUMC to looped peptides of the protein M of SARS-CoV Urbani / Binding of Control Serum Blood-Bank to Looped peptides of the protein M of SARS-CoV Urbani: unit not given here
# [2] = tested on: antibodies in sera from SARS patients (sera 1a, 1b, 2, 6, 37, 62, London, SARS-yellow, SARS-green); type: binding, human; design: Binding of serum 6 to linear peptides of protein X1 of SARS-CoV Urbani / Binding of serum 37 to linear peptides of protein X1 of SARS-CoV Urbani / Binding of serum 6 to looped/cyclic peptide (PEPSCAN-ELISA) / Binding of serum 37 to looped/cyclic peptide (PEPSCAN-ELISA) / Binding of serum 37 to looped/cyclic peptides of protein X1 of SARS-CoV Urbani / Binding of serum 6 to linear peptides of protein X2 / Binding of serum 37 to linear peptides of protein X2 / Binding of serum 37 to looped/cyclic peptides of protein X2 of SARS-CoV Urbani / Binding of serum 6 to linear peptides of protein M of SARS-CoV Urbani / Binding of serum 37 to linear peptides of protein M of SARS-CoV Urbani / Binding of serum 6 to looped/cyclic peptides of protein M of SARS-CoV Urbani / Binding of serum 37 to looped/cyclic peptides of protein M of SARS-CoV Urbani / Binding of serum 6 to linear peptides of protein X3 of SARS-CoV Urbani / Binding of serum 37 to linear peptides of protein X3 of SARS-CoV Urbani / Binding of serum 37 to looped/cyclic peptides of protein X3 of SARS-CoV Urbani / Binding of serum 6 to linear peptides of protein X4 of SARS-CoV Urbani / Binding of serum 37 to linear peptides of protein X4 of SARS-CoV Urbani / Binding of serum 37 to looped/cyclic peptides of protein X4 of SARS-CoV Urbani / Binding of serum 6 to linear peptides of protein X5 of SARS-CoV Urbani / Binding of serum 37 to linear peptides of protein X5 of SARS-CoV Urbani / Binding of serum 37 to looped/cyclic peptides of protein X5 of SARS-CoV Urbani / Binding of serum 6 to linear peptides of protein N of SARS-CoV Urbani / Binding of serum 37 to linear peptides of protein N of SARS-CoV Urbani / Binding of serum 6 to linear peptide (PEPSCAN-ELISA) / Binding of serum 1a to looped/cyclic peptides of protein N of SARS-CoV Urbani / Binding of serum 1b to looped/cyclic peptides of protein N of SARS-CoV Urbani / Binding of serum 2 to looped/cyclic peptides of protein N of SARS-CoV Urbani / Binding of serum 6 to looped/cyclic peptides of protein N of SARS-CoV Urbani / Binding of serum 37 to looped/cyclic peptides of protein N of SARS-CoV Urbani / Binding of serum 62 to looped/cyclic peptides of protein N of SARS-CoV Urbani / Binding of serum London to looped/cyclic peptides of protein N of SARS-CoV Urbani / Binding of serum SARS-green to looped/cyclic peptides of protein N of SARS-CoV Urbani: unit not given here
# [3] = tested on: rabbit serum obtained by immunizing a rabbit with the SARS-CoV strain Frankfurt 1; type: binding; design: Binding of a rabbit serum to linear peptides / Binding of a rabbit serum to looped peptides / Rabbit serum linear peptides / Rabbit serum looped peptides / Binding of a rabbit serum to linear peptides of protein N of SARS-CoV Urbani (Rabbit serum linear peptides) / Binding of a rabbit serum to looped/cyclic peptides of protein N of SARS-CoV Urbani (Rabbit serum looped peptides): unit not given here
# [4] = tested on: recombinant human anti-SARS-CoV antibody 03-018; type: binding; design: Binding of antibody 03-018 to linear peptides of the N protein of SARS-CoV Urbani / Binding of antibody 03-018 to looped/cyclic peptides of the N protein of SARS-CoV Urbani: unit not given here
Sequence,Binding of Control Serum Blood-Bank to Looped peptides [1],Binding of Control serum Blood-bank to linear peptides [1],Binding of Control serum LUMC to linear peptides [1],Binding of Control serum LUMC to looped peptides [1],Binding of serum 1a to linear peptides of protein N of SARS-CoV Urbani [2],Binding of serum 1a to looped/cyclic peptides of protein N of SARS-CoV Urbani [2],Binding of serum 1b to linear peptides of protein N of SARS-CoV Urbani [2],Binding of serum 1b to looped/cyclic peptides of protein N of SARS-CoV Urbani [2],Binding of serum 2 to linear peptides of protein N of SARS-CoV Urbani [2],Binding of serum 2 to looped/cyclic peptides of protein N of SARS-CoV Urbani [2],Binding of serum 6 to looped/cyclic peptides of protein N of SARS-CoV Urbani [2],Binding of serum 37 to looped/cyclic peptides of protein N of SARS-CoV Urbani [2],Binding of serum 62 to looped/cyclic peptides of protein N of SARS-CoV Urbani [2],Binding of serum London to looped/cyclic peptides of protein N of SARS-CoV Urbani [2],Binding of serum SARS-green to looped/cyclic peptides of protein N of SARS-CoV Urbani [2],Binding of serum SARS-yellow to looped/cyclic peptides of protein N of SARS-CoV Urbani [2],Binding of a rabbit serum to linear peptides of protein N of SARS-CoV Urbani (Rabbit serum linear peptides) [3],Binding of a rabbit serum to looped/cyclic peptides of protein N of SARS-CoV Urbani (Rabbit serum looped peptides) [3],Binding of antibody 03-018 to linear peptides of the N protein of SARS-CoV Urbani [4],Binding of antibody 03-018 to looped/cyclic peptides of the N protein of SARS-CoV Urbani [4],further results
QNGGRNGARPKQRRP,0.6,0.6,0.8,0.8,0.2,0.3,0.1,0.1,0.3,0.3,0.2,0.6,0.4,0.3,0.6,0.5,0.2,0.4,0.2,0.3,Binding of serum 6 to linear peptides of protein N of SARS-CoV Urbani [2]: 0.2; Binding of serum 37 to linear peptides of protein N of SARS-CoV Urbani [2]: 0.7; Binding of serum 62 to linear peptides of protein N of SARS-CoV Urbani [2]: 0.8; Binding of serum London to linear peptides of protein N of SARS-CoV Urbani [2]: 0.5; Binding of serum SARS-green to linear peptides of protein N of SARS-CoV Urbani [2]: 0.5; Binding of serum SARS-yellow to linear peptides of protein N of SARS-CoV Urbani [2]: 0.7
QPTVTLLPAADMDDF,,,,,0.3,0.3,0.2,0.2,0.2,0.2,0.1,0.5,0.3,0.2,0.4,0.4,0.1,0.0,0.1,0.2,Control Serum Blood-Bank Looped peptides [1]: 0.5; Control serum Blood-bank linear peptides [1]: 0.7; Control serum LUMC linear peptides [1]: 0.5; Control serum LUMC looped peptides [1]: 0.5; Binding of serum 6 to linear peptides of protein N of SARS-CoV Urbani [2]: 0.2; Binding of serum 37 to linear peptides of protein N of SARS-CoV Urbani [2]: 1.1; Binding of serum 62 to linear peptides of protein N of SARS-CoV Urbani [2]: 0.7; Binding of serum London to linear peptides of protein N of SARS-CoV Urbani [2]: 0.5; Binding of serum SARS-green to linear peptides of protein N of SARS-CoV Urbani [2]: 1.9; Binding of serum SARS-yellow to linear peptides of protein N of SARS-CoV Urbani [2]: 0.7
QQGQTVTKKSAAEAS,0.5,0.8,0.7,0.5,,0.5,,0.4,,0.5,0.3,0.6,0.5,0.4,0.8,0.5,0.2,0.0,0.1,0.2,"Recognition of the peptide by sera of SARS-CoV infected individuals, and form (linear, looped/cyclic) in which it is recognized [2]: recognized in linear form"
QRRPQGLPNNTASWF,0.8,0.7,0.6,0.9,0.2,0.5,0.1,0.3,0.1,0.5,0.4,0.7,0.6,0.5,0.7,0.6,0.1,0.6,0.1,0.2,Binding of serum 6 to linear peptides of protein N of SARS-CoV Urbani [2]: 0.2; Binding of serum 37 to linear peptides of protein N of SARS-CoV Urbani [2]: 0.6; Binding of serum 62 to linear peptides of protein N of SARS-CoV Urbani [2]: 0.7; Binding of serum London to linear peptides of protein N of SARS-CoV Urbani [2]: 0.4; Binding of serum SARS-green to linear peptides of protein N of SARS-CoV Urbani [2]: 0.2; Binding of serum SARS-yellow to linear peptides of protein N of SARS-CoV Urbani [2]: 0.7
